Data reported in ChEMBL document CHEMBL5149973, “Agaricus bisporus-Derived Glucosamine Hydrochloride Facilitates Skeletal Injury Repair through Bmp Signaling in Zebrafish Osteoporosis Model” (J Nat Prod, 2021).
Active and inactive are the calls of the source. No cut-off for these calls is given here.

Experiments:
[1] = Induction of Zebrafish Larva cartilage development assessed as increase in bone mineralization at 0.1 % measured at 6 days post fertilization by Alizarin red staining based assay; assay type: functional, Danio rerio; conditions: time 6 day
[2] = species: Danio rerio; assay: Suppression of Bmp signaling in Zebrafish embryos assessed as decrease in Col10a1a gene expression level at 0.1 % measured at 26 hrs post fertilization by semiquantitative PCR analysis; assay type: functional, tissue-based; conditions: Embryo
[3] = species: Danio rerio; assay: Suppression of Bmp signaling in Zebrafish embryos assessed as decrease in Sox9a gene expression level at 0.1 % measured at 26 hrs post fertilization by semiquantitative PCR analysis; assay type: functional, tissue-based; conditions: Embryo
[4] = species: Danio rerio; assay: Suppression of Bmp signaling in Zebrafish embryos assessed as decrease in Sox9b gene expression level at 0.1 % measured at 26 hrs post fertilization by semiquantitative PCR analysis; assay type: functional, tissue-based; conditions: Embryo
[5] = Induction of Zebrafish Larva cartilage development assessed as increase in H2 phenotype ratio at 0.3 % measured after 5 days post fertilization by Alcian blue staining based assay; assay type: functional, Danio rerio; conditions: time 5 day
[6] = species: Danio rerio; assay: Anti-osteoporosis activity in FAC-induced skeletal injury Zebrafish larvae assessed as rescue of bone damage measured for 10 day post fertilization by Alizarin red staining based assay; assay type: functional, organism-based; conditions: Larva
[7] = species: Danio rerio; assay: Induction of Zebrafish Larva caudal fin regeneration assessed as increase in bone mass measured for 15 days by Calcein staining based assay; assay type: functional; conditions: time 15.0 day
[8] = species: Danio rerio; assay: Anti-osteoporosis activity in FAC-induced skeletal injury Zebrafish larvae assessed as increase in Sox9b mRNA expression level measured for 10 day post fertilization by semiquantitative-PCR analysis; assay type: functional, organism-based; conditions: Larva
[9] = species: Danio rerio; assay: Induction of Zebrafish embryo skeletal development assessed as increase in Bmp2b mRNA expression level expanded from ventral side to dorsal side at 0.1 to 0.3 % measured at 24 hrs post fertilization by ISH analysis; assay type: functional, tissue-based; conditions: dose 0.1-0.3 %
[10] = Induction of Zebrafish embryo skeletal development assessed as mortality rate of embryo at 0.01 % measured after 72 hrs post fertilization by Alcian blue staining based assay; assay type: functional, Danio rerio
[11] = species: Danio rerio; assay: Induction of Zebrafish embryo skeletal development assessed as increase in Bmp4 mRNA expression level in head at 0.1 to 0.3 % measured at 24 hrs post fertilization by ISH analysis; assay type: functional, tissue-based; conditions: dose 0.1-0.3 %
[12] = species: Danio rerio; assay: Anti-osteoporosis activity in FAC-induced skeletal injury Zebrafish larvae assessed as increase in Sox9a mRNA expression level measured for 10 day post fertilization by semiquantitative-PCR analysis; assay type: functional, organism-based; conditions: Larva
[13] = species: Danio rerio; assay: Induction of Zebrafish embryo skeletal development assessed as upregulation of col1a2 gene expression at 0.05 to 0.3 % measured after 72 hrs post fertilization by […] analysis; assay type: functional, tissue-based; conditions: dose 0.05-0.3 %
[14] = species: Danio rerio; assay: Anti-osteoporosis activity in FAC-induced skeletal injury Zebrafish assessed as rescue of skeletal density in head at 0.1 % measured for 10 day post fertilization; assay type: functional, organism-based
[15] = Induction of Zebrafish embryo skeletal development assessed as ventralized embryos at 0.3 % measured at 24 hrs post fertilization relative to control; assay type: functional, Danio rerio
[16] = species: Danio rerio; assay: Induction of Zebrafish embryo skeletal development assessed as nuclear localization of p-Smad1 in head at 0.1 % measured at 24 to 72 hrs post fertilization by DAPI staining based analysis; assay type: functional, tissue-based; conditions: time 24-72 hrs
[17] = tested on: Osteoblast; assay: Induction of osteoblast differentiation in Zebrafish embryo assessed as upregulation of sox9b gene expression in head measured at 0.75 to 72 hrs post fertilization at 0.05 to 0.3 % by ELISA analysis; assay type: functional, tissue-based; conditions: Danio rerio, dose 0.05-0.3 %, time 0.75-72 hrs
[18] = species: Danio rerio; assay: Anti-osteoporosis activity in FAC-induced skeletal injury Zebrafish larvae assessed as increase in Col1a2 mRNA expression level measured for 10 day post fertilization by semiquantitative-PCR analysis; assay type: functional, organism-based; conditions: Larva
[19] = Induction of Zebrafish Larva cartilage development assessed as increase in H1 phenotype ratio at 0.1 % measured after 5 days post fertilization by Alcian blue staining based assay; assay type: functional, Danio rerio; conditions: time 5 day
[20] = species: Danio rerio; assay: Anti-osteoporosis activity in FAC-induced skeletal injury Zebrafish larvae assessed as increase in Col10a1a mRNA expression level measured for 10 day post fertilization by semiquantitative-PCR analysis; assay type: functional, organism-based; conditions: Larva
[21] = species: Danio rerio; assay: Suppression of Bmp signaling in Zebrafish embryo assessed as reduction in slight loss of tail tissue at 0.1 % measured at 26 hrs post fertilization in presence of dorsomorphin; assay type: functional; design: scale not given: the % may be the effect or the level left
[22] = species: Danio rerio; assay: Induction of Zebrafish embryo skeletal development assessed as increase in Bmp2b mRNA expression level in head at 0.1 % measured at 72 hrs post fertilization; assay type: functional, tissue-based
[23] = species: Danio rerio; assay: Induction of transgenic Zebrafish embryo skeletal development assessed as increase in GFP expression level in head at 0.05 to 0.3 % measured at 24 to 72 hrs post fertilization by DAPI staining based analysis; assay type: functional, tissue-based; conditions: dose 0.05-0.3 %, time 24-72 hrs
[24] = species: Danio rerio; assay: Induction of Zebrafish embryo skeletal development assessed as increase in Smad1 gene expression level in coccygeal vertebra at 0.1 % measured for 0.75 to 24 hrs post fertilization by ISH analysis; assay type: functional, tissue-based; conditions: time 0.75-24 hrs
[25] = species: Danio rerio; assay: Induction of Zebrafish embryo skeletal development assessed as upregulation of col10a1a gene expression in head bone at 0.01 to 0.3 % measured after 72 hrs post fertilization by […] analysis; assay type: functional, tissue-based; conditions: dose 0.01-0.3 %
[26] = species: Danio rerio; assay: Induction of Zebrafish embryo skeletal development assessed as increase in Bmp2b mRNA expression level in bud region at 0.1 to 0.3 % measured at 24 hrs post fertilization by ISH analysis; assay type: functional, tissue-based; conditions: dose 0.1-0.3 %
[27] = tested on: Osteoblast; assay: Induction of osteoblast differentiation in Zebrafish embryo assessed as upregulation of runx2b gene expression in operculum measured at 0.75 to 72 hrs post fertilization at 0.05 to 0.3 % by […] analysis; assay type: functional, tissue-based; conditions: Danio rerio, dose 0.05-0.3 %, time 0.75-72 hrs
[28] = species: Danio rerio; assay: Induction of Zebrafish embryo skeletal development assessed as increase in Smad1 gene expression level in spine at 0.1 % measured for 0.75 to 24 hrs post fertilization by ISH analysis; assay type: functional, tissue-based; conditions: time 0.75-24 hrs
[29] = species: Danio rerio; assay: Suppression of Bmp signaling in Zebrafish embryos assessed as decrease in Bmp2b gene expression level at 0.1 % measured at 26 hrs post fertilization by semiquantitative PCR analysis; assay type: functional, tissue-based; conditions: Embryo
[30] = species: Danio rerio; assay: Induction of Zebrafish embryo skeletal development assessed as upregulation of col10a1a gene expression in branchiostegal at 0.01 to 0.3 % measured after 72 hrs post fertilization by […] analysis; assay type: functional; conditions: dose 0.01-0.3 %
[31] = species: Danio rerio; assay: Anti-osteoporosis activity in FAC-induced skeletal injury Zebrafish larvae assessed as reduction in bone damage measured for 10 day post fertilization by Alizarin red staining based assay; assay type: functional, Larva; design: scale not given: the % may be the effect or the level left
[32] = species: Danio rerio; assay: Induction of Zebrafish embryo skeletal development assessed as increase in Bmp4 mRNA expression level in gastrula stage at 0.05 to 0.1 % measured at 24 hrs post fertilization by ISH analysis; assay type: functional, tissue-based; conditions: dose 0.05-0.1 %
[33] = species: Danio rerio; assay: Suppression of Bmp signaling in Zebrafish embryos assessed as decrease in Bmp4 gene expression level at 0.1 % measured at 26 hrs post fertilization by semiquantitative PCR analysis; assay type: functional, tissue-based; conditions: Embryo
[34] = species: Danio rerio; assay: Induction of Zebrafish embryo skeletal development assessed as increase in Bmp4 mRNA expression level in bud region at 0.1 to 0.3 % measured at 24 hrs post fertilization by ISH analysis; assay type: functional, tissue-based; conditions: dose 0.1-0.3 %

Compound: Cl.N[C@@H]1[C@@H](O)[C@H](O)[C@@H](CO)O[C@H]1O
- Activity [1]: 88%
- Activity [2]: Active
- Activity [3]: Active
- Activity [4]: Active
- Activity [5]: 50%
- Activity [6]: Active
- Activity [7]: Active
- Activity [8]: Active
- Activity [9]: Active
- Activity [10]: 12%
- Activity [11]: Active
- Activity [12]: Active
- Activity [13]: Active
- Activity [14]: Active
- Activity [15]: 20%
- Activity [16]: Active
- Activity [17]: Active
- Activity [18]: Active
- Activity [19]: 40%
- Activity [20]: Active
- Activity [21]: 50%
- Activity [22]: Active
- Activity [23]: Active
- Activity [24]: Active
- Activity [25]: Active
- Activity [26]: Active
- Activity [27]: Active
- Activity [28]: Active
- Activity [29]: Active
- Activity [30]: Active
- Activity [31]: 70%
- Activity [32]: Active
- Activity [33]: Active
- Activity [34]: Active
